Here are results for 17 compounds from patent US8008329B2 (Dong Wha Pharmaceutical Co., Ltd., priority 2008, dated 2011).

The assay relates to osteoclast differentiation. Nature of the assay: Osteoclast differentiation in co-culture of mouse bone marrow cells and ST2 cells, TRAP staining (Examples 8-9). It counts as cell-based. The conditions noted are these: for % number of osteoclast (vs. solvent control group): 0.1 μM each, day 7; for activity at 0.1 µM: Mus musculus, Osteoclast, 168 h, Individual treatment (compounds), day 7, read-out: % number of osteoclast (vs. solvent control group). As to the method: The differentiation of osteoclast from mouse bone marrow cells was induced by using co-culture system, and inhibitory effect of the drug on osteoclast differentiation was evaluated by treatment of single or combination formulation. Co-culture was performed using mouse bone marrow cells and ST cells of bone marrow-derived stromal cell.
Femora and tibia were aseptically ectomized from 6˜8 week-old male ddY mice to harvest bone marrow cells by a general method using a syringe. The red blood cells were removed from the bone marrow cells, followed by centrifugation. The bone marrow cells were suspended in α-MEM medium supplemented with 10% fetal bovine serum, and the numbers of the eukaryotic cells in the harvested bone marrow cells were counted and then immediately used for a co-culture system.
ST2 cells (RIKEN Cell Bank, Tsukuba, Japan) were cultured in α-MEM medium supplemented with 10% fetal bovine serum until confluent. Then, these cells were diluted to a desired cell number, and used for the experiment.
The bone marrow cells (1×10^5 cells/well) and ST2 cells (3,000 cells/well) prepared in the above were plated in a 96-well plate using α-MEM medium supplemented with 10% fetal bovine serum. At this time, differentiation factors, 1α,25-dihydroxyvitamin D3 (10^−8 M, hereinbelow, referred to as vitamin D3) and dexamethasone (10^−8 M), were co-added to the medium to induce osteoclast differentiation. The medium was replaced with fresh media containing the differentiation factors every 2 to 3 days.
After 7 days, when multinucleated osteoclasts were observed, the medium was removed from the wells, and then the cells were fixed with PBS containing 10% Formalin. Tartrate-Resistant Acid Phosphatase (hereinbelow, referred to as TRAP) was used as a marker to measure the mature osteoclast in consideration of its characteristics showing a positive reaction to a TRAP staining solution. The TRAP staining solution was prepared in such the manner that a substrate, naphtol AS-MS phosphate and a coloring agent (Fast Red Violet LB salt) were dissolved in N,N-dimethylformamide. A 0.1 N NaHCO3 buffer solution containing 50 mM tartaric acid was added thereto, and the mixture was stored at a refrigerator prior to use as a staining solution. The osteoclasts with 6-7 or more nuclei showing a TRAP-positive reaction were counted under a microscope.
Alendronic acid was dissolved in distilled water at a concentration of 0.1 mM, and benzamidine derivatives were dissolved in DMSO at a concentration of 0.1 mM. All of them were diluted 1,000 fold with the differentiation media to a final concentration of 0.1 μM, respectively. In this connection, a control group was maintained in 0.1% DMSO.
As the above described, the sample substances and cells, which were diluted to the desired concentrations, were plated in 96-well plate, and co-cultured. On days 3 and 5 of culture, the media were replaced with fresh differentiation media containing the sample substances. On day 7 of culture, TRAP staining was performed to count the mature multinucleated osteoclast that was formed by differentiation. The mature osteoclasts with 6 or more nuclei were counted under a microscope. The results were expressed as a percentage (%) of the number of mature osteoclast observed in each experimental group, when the number of mature osteoclast in the control group (solvent only) was regarded as 100%. The experiment was performed with 4 wells per experimental group (n=4), and the results were expressed as mean value±standard deviation. In addition, the experiment was repeated at least two times, and Student t-test was applied for significant difference between experimental groups.
The experiment was performed in the same manner as in Example 8 to evaluate the effect of individual or combination treatment of risedronic acid and benzamidine derivatives of Formula 1 on osteoclast differentiation, except using 0.1 μM risedronic acid instead of 0.1 μM alendronic acid. […]

[1] abbreviates: Combination treatment (alendronic acid + compounds).
Setting [2] is: Combination treatment (risedronic acid + compounds).

Molecules are shown by their SMILES. Marks after values point to notes of the source that are not given here.

Regarding `CCCN1CCC(c2nc(-c3ccc(OCCCCCOc4ccc(C(=N)NO)cc4)cc3)c(CC3CCCC3)s2)CC1` [Compound 68, N-hydroxy-4-{5-[4-(5-cyclopentylmethyl-2-(1-propyl-piperidin-4-yl)-1,3-thiazol-4-yl)phenoxy]pentyloxy}-benzamidine], the activity at 0.1 µM was found to be 42 ± 6.9%. Further, under setting [1], the “% number of osteoclast (vs. solvent control group)” value (“% number of osteoclast” below) is listed as 14 ± 1.4^ab %. The “% number of osteoclast” value under setting [2] is given as 8 ± 1.9^ac %.

For `Cc1sc(NC(=O)C(C)C)nc1-c1ccc(OCCCCCOc2ccc(C(=N)NO)cc2)cc1` [Compound 69, N-hydroxy-4-{5-[4-(2-(isobutyryl)amino-5-methyl-1,3-thiazol-4-yl)phenoxy]pentyloxy}-benzamidine], the activity at 0.1 µM is 80 ± 11.6%. In addition, the “% number of osteoclast” value under setting [1] is 49 ± 7.8^ab %. In addition, the “% number of osteoclast” value under setting [2] is reported as 44 ± 1.4^ac %.

In the case of `CCCN1CCC(c2nc(-c3ccc(OCCCCCOc4ccc(C(=N)NO)cc4)cc3)c(C)s2)CC1` [Compound 72, N-hydroxy-4-{5-[4-(5-methyl-2-(1-propyl-piperidin-4-yl)-1,3-thiazol-4-yl)phenoxy]pentyloxy}-benzamidine], the activity at 0.1 µM amounted to 63 ± 1.1%. For the same compound, the “% number of osteoclast” value under setting [1] is 30 ± 4.0^ab %. For the same compound, under setting [2], the “% number of osteoclast” value was 12 ± 3.2^ac %.

Consider `C=Cc1sc(C)nc1-c1ccc(OCCCCCOc2ccc(C(=N)NO)cc2)cc1` [Compound 74, N-hydroxy-4-{5-[4-(5-vinyl-2-methyl-1,3-thiazole-4-yl)phenoxy]pentyloxy}-benzamidine], for which the activity at 0.1 µM was 60 ± 0.7%. In addition, the “% number of osteoclast” value under setting [1] is reported as 36 ± 4.3^ab %. Under setting [2], the “% number of osteoclast” value is recorded as 28 ± 5.4^ac %.

Take `COCc1sc(C)nc1-c1ccc(OCCCCCOc2ccc(C(=N)NO)cc2)cc1` [Compound 76, N-hydroxy-4-{5-[4-(5-methoxymethyl-2-methyl-1,3-thiazol-4-yl)phenoxy]pentyloxy}-benzamidine]: the activity at 0.1 µM stood at 53 ± 6.5%. Further, the “% number of osteoclast” value under setting [1] was 31 ± 6.8^ab %. The “% number of osteoclast” value under setting [2] is 22 ± 3.8^a %.

On to `C=Cc1sc(N)nc1-c1ccc(OCCCCCOc2ccc(C(=N)NO)cc2)cc1` [Compound 78, N-hydroxy-4-{5-[4-(5-vinyl-2-amino-1,3-thiazol-4-yl)phenoxy]pentyloxy}-benzamidine], for which the activity at 0.1 µM amounted to 67 ± 2.1%. Besides, the “% number of osteoclast” value under setting [1] is listed as 36 ± 4.2^ab %. For the same compound, under setting [2], the “% number of osteoclast” value was 20 ± 1.7^a %.

On to `C=Cc1sc(-c2cccnc2)nc1-c1ccc(OCCCCCOc2ccc(C(=N)NO)cc2)cc1` [Compound 79, N-hydroxy-4-{5-[4-(5-vinyl-2-(pyridin-3-yl)-1,3-thiazol-4-yl)phenoxy]pentyloxy}-benzamidine], for which the activity at 0.1 µM came out at 44 ± 7.5%. For the same compound, under setting [1], the “% number of osteoclast” value is 22 ± 6.7^ab %. Moreover, the “% number of osteoclast” value under setting [2] was 16 ± 4.0^ac %.

With `N=C(NO)c1ccc(OCCCCCOc2ccc(-c3nc(-c4cccnc4)sc3CCCl)cc2)cc1` [Compound 80, N-hydroxy-4-{5-[4-(5-(2-chloroethyl)-2-(pyridin-3-yl)-1,3-thiazol-4-yl)phenoxy]pentyloxy}-benzamidine], the activity at 0.1 µM was found to be 65 ± 1.4%. In addition, the “% number of osteoclast” value under setting [1] is 42 ± 9.9^b %. The “% number of osteoclast” value under setting [2] is recorded as 38 ± 3.7^ac %.

As to `CCNc1nc(-c2ccc(OCCCCCOc3ccc(C(=N)NO)cc3)cc2)cs1` [Compound 84, N-hydroxy-4-{5-[4-(2-ethylamino-1,3-thiazol-4-yl)phenoxy]pentyloxy}-benzamidine], the activity at 0.1 µM was 44 ± 4.3%. In addition, the “% number of osteoclast” value under setting [1] was 30 ± 5.1^ab %. The “% number of osteoclast” value under setting [2] was 6 ± 4.4^ac %.

As for `CCCNc1nc(-c2ccc(OCCCCCOc3ccc(C(=N)NO)cc3)cc2)c(C)s1` [Compound 88, N-hydroxy-4-{5-[4-(5-methyl-2-propylamino-1,3-thiazol-4-yl)phenoxy]pentyloxy}-benzamidine], the activity at 0.1 µM is 63 ± 7.6%. The “% number of osteoclast” value under setting [1] came to 61 ± 11.7%. Moreover, the “% number of osteoclast” value under setting [2] is listed as 29 ± 4.7^ac %.

As for `N=C(NO)c1ccc(OCCCCCOc2ccc(-c3nc(NC(=O)c4cccnc4)sc3CC3CCCC3)cc2)cc1` [Compound 89, N-hydroxy-4-{5-[4-(5-cyclopentylmethyl-2-(3-pyridylcarbonyl)amino-1,3-thiazol-4-yl)phenoxy]pentyloxy}-benzamidine], the activity at 0.1 µM worked out at 58 ± 5.1%. The “% number of osteoclast” value under setting [1] is given as 38 ± 1.9^ab %. Also, under setting [2], the “% number of osteoclast” value is recorded as 39 ± 2.7^ac %.

Turning to `Cc1sc(NC(=O)CO)nc1-c1ccc(OCCCCCOc2ccc(C(=N)NO)cc2)cc1` [Compound 90, N-hydroxy-4-{5-[4-(2-hydroxyacetylamino-5-methyl-1,3-thiazol-4-yl)phenoxy]pentyloxy}-benzamidine], the activity at 0.1 µM turned out to be 87 ± 10%. Further, the “% number of osteoclast” value under setting [1] is given as 54 ± 8.6^ab %. Besides, under setting [2], the “% number of osteoclast” value is on record as 39 ± 8.4^ac %.

For the compound `Cc1sc(NC(=O)c2ccncc2)nc1-c1ccc(OCCCCCOc2ccc(C(=N)NO)cc2)cc1` [Compound 91, N-hydroxy-4-{5-[4-(5-methyl-2-(4-pyridylcarbonyl)amino-1,3-thiazol-4-yl)phenoxy]pentyloxy}-benzamidine], the activity at 0.1 µM was found to be 60 ± 8.8%. Besides, under setting [1], the “% number of osteoclast” value was 35 ± 2.7^ab %. The “% number of osteoclast” value under setting [2] was 32 ± 7.0^ac %.

For the compound `COCCNc1nc(-c2ccc(OCCCCCOc3ccc(C(=N)NO)cc3)cc2)c(C)s1` [Compound 94, N-hydroxy-4-{5-[4-(2-(2-methoxyethyl)amino-5-methyl-1,3-thiazol-4-yl)phenoxy]pentyloxy}-benzamidine], the activity at 0.1 µM came out at 45 ± 3%. The “% number of osteoclast” value under setting [1] was 20 ± 4.8^ab %. Moreover, the “% number of osteoclast” value under setting [2] is 16 ± 3.3^ac %.

For the compound `CCc1sc(NS(=O)(=O)CC)nc1-c1ccc(OCCCCCOc2ccc(C(=N)NO)cc2)cc1` [Compound 95, N-hydroxy-4-{5-[4-(2-ethanesulphonylamino-5-ethyl-1,3-thiazol-4-yl)phenoxy]pentyloxy}-benzamidine], the activity at 0.1 µM was 90 ± 5.4%. The “% number of osteoclast” value under setting [1] is 37 ± 10.3^ab %. Also, the “% number of osteoclast” value under setting [2] is listed as 33 ± 6.8^ac %.

With `CCc1sc(NC)nc1-c1ccc(OCCCCCOc2ccc(C(=N)NO)cc2)cc1` [Compound 96, N-hydroxy-4-{5-[4-(5-ethyl-2-methylamino-1,3-thiazol-4-yl)phenoxy]pentyloxy}-benzamidine], the activity at 0.1 µM came to 74 ± 8.1%. For the same compound, under setting [1], the “% number of osteoclast” value came out at 55 ± 10.0%. For the same compound, the “% number of osteoclast” value under setting [2] is 34 ± 7.1^ac %.

On to `CCNc1nc(-c2ccc(OCCCCCOc3ccc(C(=N)NO)cc3)cc2)c(CC)s1` [Compound 97, N-hydroxy-4-{5-[4-(5-ethyl-2-ethylamino-1,3-thiazol-4-yl)phenoxy]pentyloxy}-benzamidine], for which the activity at 0.1 µM came to 57 ± 5.2%. Besides, the “% number of osteoclast” value under setting [1] is given as 30 ± 5.7^ab %. Under setting [2], the “% number of osteoclast” value was 13 ± 4.3^ac %.
